In US8785404B2, “Urea compounds” (Eli Lilly and Company, priority 2012, dated 2014):

Columns and labels:
[1] = target: T1, human SGLT1 (Homo sapiens, UniProt P13866); assay: 14C-AMG uptake assay, human SGLT1 in CHO-K1 cells; type: cell-based
T1 sequence (P13866 1-664): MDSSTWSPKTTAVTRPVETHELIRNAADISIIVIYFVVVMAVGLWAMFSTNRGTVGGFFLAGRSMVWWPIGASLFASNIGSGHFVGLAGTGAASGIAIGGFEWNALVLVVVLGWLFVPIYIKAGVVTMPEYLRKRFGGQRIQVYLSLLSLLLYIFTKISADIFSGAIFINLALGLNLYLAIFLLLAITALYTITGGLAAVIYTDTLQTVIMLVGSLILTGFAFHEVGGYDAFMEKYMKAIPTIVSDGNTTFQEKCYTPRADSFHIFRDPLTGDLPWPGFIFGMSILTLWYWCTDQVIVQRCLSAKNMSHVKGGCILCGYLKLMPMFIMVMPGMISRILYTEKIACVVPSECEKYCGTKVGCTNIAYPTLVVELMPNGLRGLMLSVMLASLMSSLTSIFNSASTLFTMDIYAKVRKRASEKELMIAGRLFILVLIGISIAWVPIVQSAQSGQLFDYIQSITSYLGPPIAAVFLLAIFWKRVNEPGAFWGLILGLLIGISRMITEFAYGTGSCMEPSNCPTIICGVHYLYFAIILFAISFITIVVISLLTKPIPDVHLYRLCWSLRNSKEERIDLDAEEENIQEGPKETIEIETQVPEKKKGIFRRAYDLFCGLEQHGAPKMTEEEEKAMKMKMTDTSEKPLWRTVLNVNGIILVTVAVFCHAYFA
Text: (§1) The cDNA encoding human SGLT1 (slc5a1, NM_000343), human SGLT2 (slc5a2, NM_003041) and mouse SGLT1 (slc5a1, NM_019810.4) are purchased from Openbiosystems, Invitrogen and Openbiosystems, respectively. The cDNA is cloned into pcDNA3.1+ for mammalian expression and is stably transfected into Chinese hamster ovary (CHO)-K1 cells using standard mammalian transfection procedures. An SGLT-expressing sub-clone of each over-expressing cell line is selected based on resistance to neomycin (Geneticin, Invitrogen) and activity in the ^14C-α-methyl-D-glucopyranoside (^14C-AMG) uptake assay (see below). Stable SGLT-expressing cells are maintained using standard cell culture techniques.
(§2) The SGLT activity is measured as sodium-dependent ^14C-AMG uptake in the above cell lines described as follows. One hundred μL of culture medium containing 30,000 cells are seeded to each well of a 96-well BioCoat poly-D-lysine plate (Becton Dickson) and cultured at 37° C. overnight. The culture medium is aspirated and cells are washed twice with 200 μL of Reaction Buffer (140 mM NaCl, 2 mM KCl, 1 mM CaCl2, MgCl2, and 14 mM N-2-hydroethylpiperrazine-N′-2-ethanesulfonic acid (Hepes), pH 7.5). The excess buffer is tapped out onto paper towels. Thirty-five μL of Reaction Buffer are added to each well. […] After mixing, the scintillation signal in the plate is counted in a MicroBeta (PerkinElmer). […]

[2] = target: T2, human SGLT2 (Homo sapiens, UniProt P31639); assay: 14C-AMG uptake assay, human SGLT2 in CHO-K1 cells; type: cell-based; settings: sodium-dependent 14C-AMG uptake, n = 5
T2 sequence (P31639 1-672): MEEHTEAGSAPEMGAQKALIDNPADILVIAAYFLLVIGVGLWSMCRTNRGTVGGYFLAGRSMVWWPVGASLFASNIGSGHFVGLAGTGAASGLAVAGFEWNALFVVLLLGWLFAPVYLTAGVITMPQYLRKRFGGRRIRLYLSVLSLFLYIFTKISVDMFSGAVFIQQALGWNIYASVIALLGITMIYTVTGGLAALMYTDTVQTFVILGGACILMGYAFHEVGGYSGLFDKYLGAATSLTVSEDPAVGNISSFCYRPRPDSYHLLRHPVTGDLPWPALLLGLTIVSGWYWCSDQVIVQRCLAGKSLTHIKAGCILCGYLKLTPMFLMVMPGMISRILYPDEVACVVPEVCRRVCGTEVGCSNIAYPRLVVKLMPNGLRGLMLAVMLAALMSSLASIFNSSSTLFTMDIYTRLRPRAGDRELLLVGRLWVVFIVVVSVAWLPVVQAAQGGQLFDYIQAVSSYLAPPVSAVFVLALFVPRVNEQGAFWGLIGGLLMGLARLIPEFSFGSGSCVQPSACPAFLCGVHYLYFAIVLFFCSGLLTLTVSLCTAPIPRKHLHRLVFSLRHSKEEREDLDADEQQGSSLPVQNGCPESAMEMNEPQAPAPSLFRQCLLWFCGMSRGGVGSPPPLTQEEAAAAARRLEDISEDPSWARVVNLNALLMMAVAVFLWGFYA
Text: as §1, §2

[3] = target: T3, mouse SGLT1 (Mus musculus, UniProt Q8C3K6); assay: 14C-AMG uptake assay, mouse SGLT1 in CHO-K1 cells; type: cell-based; settings: sodium-dependent 14C-AMG uptake, n = 5
T3 sequence (Q8C3K6 1-665): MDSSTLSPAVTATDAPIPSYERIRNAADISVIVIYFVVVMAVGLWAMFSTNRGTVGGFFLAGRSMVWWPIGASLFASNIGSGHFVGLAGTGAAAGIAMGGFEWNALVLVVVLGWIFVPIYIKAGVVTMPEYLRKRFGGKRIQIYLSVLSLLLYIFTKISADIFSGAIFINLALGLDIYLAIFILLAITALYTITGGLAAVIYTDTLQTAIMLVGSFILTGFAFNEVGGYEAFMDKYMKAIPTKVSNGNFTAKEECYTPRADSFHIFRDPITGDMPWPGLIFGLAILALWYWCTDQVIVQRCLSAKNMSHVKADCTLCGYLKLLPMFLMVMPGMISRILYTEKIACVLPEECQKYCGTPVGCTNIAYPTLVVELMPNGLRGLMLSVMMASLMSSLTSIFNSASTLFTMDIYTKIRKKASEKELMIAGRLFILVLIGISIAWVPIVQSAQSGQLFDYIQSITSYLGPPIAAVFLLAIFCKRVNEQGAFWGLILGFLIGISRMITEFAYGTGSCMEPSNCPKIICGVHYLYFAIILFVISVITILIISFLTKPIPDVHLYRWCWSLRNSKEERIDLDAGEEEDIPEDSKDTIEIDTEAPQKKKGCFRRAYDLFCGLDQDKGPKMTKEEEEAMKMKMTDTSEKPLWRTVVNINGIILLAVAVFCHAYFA
Text: as §1, §2

[4] = system: C57Bl/6 mice; assay: Glucose lowering effects in oral glucose tolerance test (OGTT); type: in vivo, mouse; settings: for Glucose, 20 Minute / Glucose, 40 Minute / Glucose, 60 Minute / Glucose, 120 Minute / Glucose, 0 Minute / Baseline Adjusted AUC (glucose) / Glucose Cmax / Glucose Tmax: 10 mg/kg oral, mean ± SE; for Glucose, 20 Minute: 20 min after dextrose 3 g/kg; for Glucose, 40 Minute: 40 min after dextrose 3 g/kg; for Glucose, 60 Minute: 60 min after dextrose 3 g/kg; for Glucose, 120 Minute: 120 min after dextrose 3 g/kg; for Glucose, 0 Minute: baseline before dextrose 3 g/kg
Description: The test compound is formulated by adding a vehicle of 1% hydroxyethylcellulose, 0.25% Tween® 80 w/antifoam 0.05% to preweighed test compound to make a 1 mg/ml solution. The mixture is probe sonicated for approximately 1 minute. A stir bar is added, and the resulting suspension is stirred continuously throughout dosing.
Single housed C57Bl/6 mice are weighed and body weights used to determine study groups (n=5), within a working range of 26-30 g. After grouping, all mice are fasted overnight by removing access to food, late afternoon before test day. At the same time, two groups of mice are orally gavaged with 10 ml/kg test compound preparation or vehicle. Animals are dosed thirty seconds apart. […] The following morning, the remaining mice are weighed and orally gavaged using the same protocol as the previous day.
At five, eight and eighteen hours after each respective compound treatment is started, a baseline blood sample is taken for measuring glucose (from the first animal, via tail snip). The animal is then immediately given an oral dose of 50% dextrose (Hospira®) at 3 g/kg. Blood samples are taken for glucose, exactly thirty seconds apart, by tail vein so that blood is collected in each animal at 20, 40, 60 and 120 minutes after the dextrose dose.

Cc1cc(/C=C/CCN2CCCC3(CCN(C(=O)CNC(=O)NCC(C)C)CC3)C2)ccc1Cc1c(O[C@@H]2O[C@H](CO)[C@@H](O)[C@H](O)[C@H]2O)n[nH]c1C(C)C [Example 1, 1-(2-{2-[(3E)-4-(4-{[3-(beta-D-glucopyranosyloxy)-5-(propan-2-yl)-1H-pyrazol-4-yl]methyl}-3-methylphenyl)but-3-en-1-yl]-2,9-diazaspiro[5.5]undec-9-yl}-2-oxoethyl)-3-(2-methylpropyl)urea]
Potency at SGLT1 relative to human SGLT2 (in words) ([1]; in vitro, human and mouse SGLT1 vs human SGLT2): more potent at human and mouse SGLT1 than at human SGLT2 | IC50 ([1]; sodium-dependent 14C-AMG uptake, CHO-K1 cells, n = 5): 17.3 ± 16.2 nM | IC50 [2]: 171 ± 26 nM | IC50 [3]: 7.3 ± 2.9 nM | Glucose, 20 Minute ([4]; OGTT @ 5 hr post dose): 124.7 ± 7.66 mg/dL | Glucose, 40 Minute ([4]; OGTT @ 5 hr post dose): 139.2 ± 7.69 mg/dL | Glucose, 60 Minute ([4]; OGTT @ 5 hr post dose): 133.2 ± 6.24 mg/dL | Glucose, 120 Minute ([4]; OGTT @ 5 hr post dose): 108.7 ± 4.93 mg/dL | Glucose, 0 Minute ([4]; OGTT @ 5 hr post dose): 75.9 ± 3.21 mg/dL | Baseline Adjusted AUC (glucose) ([4]; OGTT @ 5 hr post dose): 2815 ± 194 mg/dL | Glucose Cmax ([4]; OGTT @ 5 hr post dose): 140.2 ± 7.48 mg/dL | Glucose Tmax ([4]; OGTT @ 5 hr post dose): 56 ± 16 min | Glucose, 20 Minute ([4]; OGTT @ 8 hrs post dose): 142.4 ± 7.4 mg/dL | Glucose, 40 Minute ([4]; OGTT @ 8 hrs post dose): 168.1 ± 8.37 mg/dL | Glucose, 60 Minute ([4]; OGTT @ 8 hrs post dose): 171.2 ± 10.1 mg/dL | Glucose, 120 Minute ([4]; OGTT @ 8 hrs post dose): 113.6 ± 4.25 mg/dL | Glucose, 0 Minute ([4]; OGTT @ 8 hrs post dose): 75.5 ± 4.42 mg/dL | Baseline Adjusted AUC (glucose) ([4]; OGTT @ 8 hrs post dose): 4147 ± 456 mg/dL | Glucose Cmax ([4]; OGTT @ 8 hrs post dose): 175.1 ± 9.3 mg/dL | Glucose Tmax ([4]; OGTT @ 8 hrs post dose): 52 ± 4.9 min | Glucose, 20 Minute ([4]; OGTT @ 18 hrs post dose): 196.0 ± 16.6 mg/dL | Glucose, 40 Minute ([4]; OGTT @ 18 hrs post dose): 216.1 ± 15.0 mg/dL | Glucose, 60 Minute ([4]; OGTT @ 18 hrs post dose): 188.7 ± 13.8 mg/dL | Glucose, 120 Minute ([4]; OGTT @ 18 hrs post dose): 110.3 ± 5.74 mg/dL | Glucose, 0 Minute ([4]; OGTT @ 18 hrs post dose): 78.7 ± 8.81 mg/dL | Baseline Adjusted AUC (glucose) ([4]; OGTT @ 18 hrs post dose): 6194 ± 406 mg/dL | Glucose Cmax ([4]; OGTT @ 18 hrs post dose): 216.1 ± 15.0 mg/dL | Glucose Tmax ([4]; OGTT @ 18 hrs post dose): 44 ± 4.0 min | Average maximum concentration of plasma glucose (Cmax) (in words) ([4]; during all three OGTTs): decreases | Average time for glucose to reach maximum concentration (Tmax) (in words) ([4]; during all three OGTTs): increasing | Baseline adjusted glucose AUC (in words) ([4]; during all three OGTTs): dose dependent decrease | Glucose excursion after oral bolus of 50% dextrose (in words) ([4]; normal glycemic C57Bl/6 mouse, five, eight or eighteen hours after administration): decrease in the glucose excursion
